{"source": "ChEMBL document CHEMBL1156261", "about": "“Evaluation of substituted N,N'-diarylsulfonamides as activators of the tumor cell specific M2 isoform of pyruvate kinase” (J Med Chem, 2010)", "note": "Active and inactive are the calls of the source. The rule behind the calls is not given here."}
{"biological_target": "Pyruvate kinase (Leishmania mexicana) (UniProt Q27686)", "assay": "Activation of Leishmania mexicana pyruvate kinase by quantitative high throughput screening assay"}
{"smiles": "COc1cccc(S(=O)(=O)N2CCN(S(=O)(=O)c3ccc4c(c3)OCCO4)CC2)c1", "Activity": "inactive"}
{"smiles": "O=S(=O)(NC1CCN(S(=O)(=O)c2c(F)cccc2F)C1)c1ccc2c(c1)OCCO2", "note": "(centres undefined)", "Activity": "inactive"}
{"smiles": "O=C(c1c(F)cccc1F)N1CCN(S(=O)(=O)c2ccc3c(c2)OCCO3)CC1", "Activity": "inactive"}
{"smiles": "O=S(=O)(NCCNS(=O)(=O)c1c(F)cccc1F)c1ccc2c(c1)OCCO2", "Activity": "inactive"}
{"smiles": "O=S(=O)(NC1CCN(S(=O)(=O)c2ccc3c(c2)OCCO3)CC1)c1c(F)cccc1F", "Activity": "inactive"}
{"smiles": "COc1cc(F)c(S(=O)(=O)N2CCN(S(=O)(=O)c3ccc4c(c3)OCCO4)CC2)c(F)c1", "Activity": "inactive"}
{"smiles": "Nc1cccc(S(=O)(=O)N2CCN(S(=O)(=O)c3c(F)cccc3F)CC2)c1", "Activity": "inactive"}
{"smiles": "COc1cc(F)c(S(=O)(=O)N2CCN(S(=O)(=O)c3cccc(N)c3)CC2)c(F)c1", "Activity": "inactive"}
{"smiles": "O=S(=O)(N[C@H]1CC[C@H](NS(=O)(=O)c2c(F)cccc2F)CC1)c1ccc2c(c1)OCCO2", "Activity": "inactive"}
{"smiles": "O=S(=O)(c1c(F)cccc1F)C1CCN(S(=O)(=O)c2ccc3c(c2)OCCO3)CC1", "Activity": "inactive"}
{"smiles": "CC1(C)CCc2cc(S(=O)(=O)N3CCN(S(=O)(=O)c4c(F)cccc4F)CC3)ccc2O1", "Activity": "inactive"}
{"smiles": "N#Cc1ccc(S(=O)(=O)N2CCN(S(=O)(=O)c3ccc4c(c3)OCCO4)CC2)cc1", "Activity": "inactive"}
{"smiles": "C[C@H]1CN(S(=O)(=O)c2ccc3c(c2)OCCO3)CCN1S(=O)(=O)c1c(F)cccc1F", "Activity": "inactive"}
{"smiles": "C[C@H]1CN(S(=O)(=O)c2c(F)cccc2F)CCN1S(=O)(=O)c1ccc2c(c1)OCCO2", "Activity": "inactive"}
{"smiles": "O=S(=O)(c1ccc2c(c1)OCCO2)N1CCN(S(=O)(=O)c2ccccc2F)CC1", "Activity": "inactive"}
{"smiles": "O=S(=O)(c1ccc2c(c1)OCCO2)N1CCN(S(=O)(=O)c2cccc[n+]2[O-])CC1", "Activity": "inactive"}
{"smiles": "O=S(=O)(c1cccc(F)c1)N1CCN(S(=O)(=O)c2ccc3c(c2)OCCO3)CC1", "Activity": "inactive"}
{"smiles": "O=S(=O)(c1ccc2c(c1)OCO2)N1CCN(S(=O)(=O)c2c(F)cccc2F)CC1", "Activity": "inactive"}
{"smiles": "O=S(=O)(NCCCCCNS(=O)(=O)c1c(F)cccc1F)c1ccc2c(c1)OCCO2", "Activity": "inactive"}
{"smiles": "O=S(=O)(c1cccc(C(F)(F)F)c1)N1CCN(S(=O)(=O)c2ccc3c(c2)OCCO3)CC1", "Activity": "inactive"}
{"smiles": "O=S(=O)(c1ccc2ccccc2c1)N1CCN(S(=O)(=O)c2c(F)cccc2F)CC1", "Activity": "inactive"}
{"smiles": "O=C1CN(S(=O)(=O)c2c(F)cccc2F)CCN1S(=O)(=O)c1ccc2c(c1)OCCO2", "Activity": "inactive"}
{"smiles": "C[C@@H]1CN(S(=O)(=O)c2ccc3c(c2)OCCO3)CCN1S(=O)(=O)c1c(F)cccc1F", "Activity": "inactive"}
{"smiles": "O=S(=O)(c1ccc2c(c1)OCCO2)N1CCN(S(=O)(=O)c2ccc(F)cc2F)CC1", "Activity": "inactive"}
{"smiles": "O=S(=O)(c1ccc2c(c1)OCCO2)N1CCN(S(=O)(=O)c2c(F)cccc2F)CC1", "Activity": "inactive"}
{"smiles": "O=S(=O)(NCCCCCCNS(=O)(=O)c1c(F)cccc1F)c1ccc2c(c1)OCCO2", "Activity": "inactive"}
{"smiles": "O=S(=O)(NC1CCN(S(=O)(=O)c2c(F)cccc2F)CC1)c1ccc2c(c1)OCCO2", "Activity": "inactive"}
{"smiles": "O=S(=O)(c1ccc(F)cc1)N1CCN(S(=O)(=O)c2ccc3c(c2)OCCO3)CC1", "Activity": "inactive"}
{"smiles": "O=S(=O)(c1c(F)cccc1F)N1CCN(S(=O)(=O)c2c(F)cccc2F)CC1", "Activity": "inactive"}
{"smiles": "O=S(=O)(c1ccc2c(c1)OCCO2)N1CCN(S(=O)(=O)c2ccccn2)CC1", "Activity": "inactive"}
{"smiles": "O=S(=O)(N[C@H]1CC[C@@H](NS(=O)(=O)c2c(F)cccc2F)CC1)c1ccc2c(c1)OCCO2", "Activity": "inactive"}
{"smiles": "O=S(=O)(c1ccc2c(c1)OCCO2)N1CCN(S(=O)(=O)c2cc(F)c(F)cc2F)CC1", "Activity": "inactive"}
{"smiles": "Nc1cccc(S(=O)(=O)N2CCN(S(=O)(=O)c3ccc4c(c3)OCCO4)CC2)c1", "Activity": "inactive"}
{"smiles": "COc1ccc(S(=O)(=O)N2CCN(S(=O)(=O)c3ccc4c(c3)OCCO4)CC2)cc1", "Activity": "inactive"}
{"smiles": "COc1ccc(S(=O)(=O)N2CCN(S(=O)(=O)c3ccc(OC)cc3)CC2)cc1", "Activity": "inactive"}
{"smiles": "Cn1ccc2cc(S(=O)(=O)N3CCN(S(=O)(=O)c4c(F)cccc4F)CC3)ccc21", "Activity": "inactive"}
{"smiles": "O=C(c1ccc2c(c1)OCCO2)N1CCN(S(=O)(=O)c2c(F)cccc2F)CC1", "Activity": "inactive"}
{"smiles": "O=S(=O)(NCCCNS(=O)(=O)c1c(F)cccc1F)c1ccc2c(c1)OCCO2", "Activity": "inactive"}
{"smiles": "O=S(=O)(c1ccccc1)N1CCN(S(=O)(=O)c2ccc3c(c2)OCCO3)CC1", "Activity": "inactive"}
{"smiles": "O=S(=O)(NCC1CN(S(=O)(=O)c2ccc3c(c2)OCCO3)C1)c1c(F)cccc1F", "Activity": "inactive"}
{"smiles": "COc1ccc(S(=O)(=O)N2CCN(S(=O)(=O)c3c(F)cccc3F)CC2)cc1", "Activity": "inactive"}
{"smiles": "Nc1cccc(S(=O)(=O)N2CCCN(S(=O)(=O)c3ccc4c(c3)OCCO4)CC2)c1", "Activity": "inactive"}
{"smiles": "O=S(=O)(c1ccc(Cl)cc1)N1CCN(S(=O)(=O)c2ccc3c(c2)OCCO3)CC1", "Activity": "inactive"}
{"smiles": "O=C1CN(S(=O)(=O)c2ccc3c(c2)OCCO3)CCN1S(=O)(=O)c1c(F)cccc1F", "Activity": "inactive"}
{"smiles": "O=S(=O)(c1ccc2c(c1)OCCO2)N1CCN(S(=O)(=O)c2ccc3c(c2)OCCO3)CC1", "Activity": "inactive"}
{"smiles": "O=S(=O)(NCCCCNS(=O)(=O)c1c(F)cccc1F)c1ccc2c(c1)OCCO2", "Activity": "inactive"}
{"smiles": "O=S(=O)(c1ccc2c(c1)OCCCO2)N1CCN(S(=O)(=O)c2c(F)cccc2F)CC1", "Activity": "inactive"}
{"smiles": "C[C@@H]1CN(S(=O)(=O)c2c(F)cccc2F)CCN1S(=O)(=O)c1ccc2c(c1)OCCO2", "Activity": "inactive"}
{"smiles": "O=S(=O)(NCC1CN(S(=O)(=O)c2c(F)cccc2F)C1)c1ccc2c(c1)OCCO2", "Activity": "inactive"}
{"smiles": "O=S(=O)(c1ccc2c(c1)OCCO2)N1CCCN(S(=O)(=O)c2c(F)cccc2F)CC1", "Activity": "inactive"}
{"smiles": "O=S(=O)(c1ccc2c(c1)OCCO2)C1CCN(S(=O)(=O)c2c(F)cccc2F)CC1", "Activity": "inactive"}
{"smiles": "O=S(=O)(NC1CCN(S(=O)(=O)c2ccc3c(c2)OCCO3)C1)c1c(F)cccc1F", "note": "(centres undefined)", "Activity": "inactive"}
{"smiles": "O=S(=O)(c1ccc2c(c1)OCCO2)N1CCN(S(=O)(=O)c2c(F)ccc(O)c2F)CC1", "Activity": "inactive"}
{"smiles": "COc1cc(F)c(S(=O)(=O)N2CCCN(S(=O)(=O)c3cccc(N)c3)CC2)c(F)c1", "Activity": "inactive"}
